Measurements: patent US8415469B2, “Compounds and methods for kinase modulation, and indications therefor” (Plexxikon Inc., priority 2005, dated 2013)

What was measured:
Assay type in all cases: biochemical
[1] = molecular target: PDGFRA (Homo sapiens, UniProt P16234); test: AlphaScreen kinase assay, PDGFRA; details: read-out: IC50, activity toward kinase PDGFRA
In short: (§1)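 AlphaScreen read-out: acceptor-bead emission falls when kinase is inhibited. Biotin-peptide substrate captured on streptavidin donor beads, phospho-specific antibody on acceptor beads. 8 concentrations, 1:3 dilution series, from 20 mM DMSO stocks.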

[2] = molecular target: T1, Flt3 (Homo sapiens, UniProt P36888); test: Z'-Lyte FRET kinase assay (Invitrogen), Flt3; details: read-out: IC50, activity toward kinase Flt3
T1 construct: purchased Invitrogen (assay run by Invitrogen)
T1 sequence (P36888 27-993): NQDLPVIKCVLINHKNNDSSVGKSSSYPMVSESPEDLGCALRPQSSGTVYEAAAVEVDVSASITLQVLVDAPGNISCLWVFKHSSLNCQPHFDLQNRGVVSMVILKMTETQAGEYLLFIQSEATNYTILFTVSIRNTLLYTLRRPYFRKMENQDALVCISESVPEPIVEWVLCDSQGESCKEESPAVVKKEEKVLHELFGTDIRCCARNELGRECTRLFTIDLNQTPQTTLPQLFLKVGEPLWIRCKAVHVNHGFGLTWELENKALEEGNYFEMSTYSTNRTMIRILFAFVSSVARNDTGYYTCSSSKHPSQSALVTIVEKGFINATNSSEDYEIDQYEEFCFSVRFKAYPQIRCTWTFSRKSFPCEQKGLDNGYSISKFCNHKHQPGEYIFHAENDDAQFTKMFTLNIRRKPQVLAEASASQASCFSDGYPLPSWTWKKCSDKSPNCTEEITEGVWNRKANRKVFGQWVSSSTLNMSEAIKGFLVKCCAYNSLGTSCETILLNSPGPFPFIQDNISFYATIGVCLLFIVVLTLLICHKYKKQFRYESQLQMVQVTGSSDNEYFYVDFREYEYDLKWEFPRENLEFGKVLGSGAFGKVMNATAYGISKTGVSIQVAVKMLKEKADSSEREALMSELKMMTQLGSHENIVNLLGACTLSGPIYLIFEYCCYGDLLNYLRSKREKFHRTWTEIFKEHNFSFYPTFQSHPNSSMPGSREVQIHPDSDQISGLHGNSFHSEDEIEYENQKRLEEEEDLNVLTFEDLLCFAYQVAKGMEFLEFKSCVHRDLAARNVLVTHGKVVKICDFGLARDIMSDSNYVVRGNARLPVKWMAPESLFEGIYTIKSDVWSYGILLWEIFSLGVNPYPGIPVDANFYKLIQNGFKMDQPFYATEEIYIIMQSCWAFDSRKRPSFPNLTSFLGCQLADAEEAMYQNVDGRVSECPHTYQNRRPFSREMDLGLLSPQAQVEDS
From the text: The effect of potential modulators of kinase activity can be measured in a variety of different assays known in the art. For example, direct radiometric, indirect FRET or AlphaScreen assays may be used to assess the level of phosphorylation of a substrate in the presence of test compounds in order to determine the inhibitory affect of the compound on the kinase. Invitrogen (Carlsbad, Calif.) uses a FRET based assay for Btk, EGFR, EphB2, Flt3, lrak4, Kdr, MAP2K1, MAPKAPK2, PDGFRB, PKC theta, Stk6 and Yes. For these assays, compounds of the invention were screened by Invitrogen using Z′-Lyte™ kinase assay.
Briefly, the Invitrogen kinase assay involves use of a specific peptide substrate optimized for each kinase, containing a fluorophore at each end that make up the FRET pair. The peptide sensitivity to proteolytic cleavage depends on phosphorylation of the peptide. Non-phosphorylated peptide is cleaved by a protease while peptide phosphorylated by the kinase is not cleaved. Cleavage of the peptide disrupts the FRET between the donor (coumarin) and acceptor (fluorescein) fluorophores, resulting in an increase in the ratio of donor emission to acceptor emission. The emission ratio of coumarin to fluorescein is used to assess the reaction progress. The extent of phosphorylation is determined from the emission ratio, which is low when the kinase is active (phosphorylated peptide is not cleaved, FRET pair connected) or higher for inhibited kinase (non-phosphorylated peptide is cleaved, FRET pair separated). Thus, the assay involves a kinase reaction in the presence of varying concentrations of a given compound, a development reaction with site specific protease, and detection of the fluorescent emission ratio of coumarin and fluorscein. […] Reaction conditions for each kinase are determined to provide optimal reaction times, incubation temperature, kinase and ATP concentrations. Test samples are made up in 1× kinase buffer (50 mM HEPES pH 7.5, 50 mM MgCl2, 5 mM EGTA, 0.05% BRIJ-35) and compound at desired concentration prepared in DMSO such that the final DMSO is 1%. […] Typically, assay plates are prepared to 10 μl final volume per sample, adding 2.5 μl of compound at 4× the desired concentration in 4% DMSO (serial dilution of compound provides concentration curve), 5 μl of the desired kinase mixed with Z′-LYTE™ peptide substrate (2× in 2× kinase buffer, final peptide at 2 μM), and 2.5 μl of 4×ATP solution. All kinase except for MAP2K1 were at 10 μM ATP in the kinase reaction, while MAP2K1 was at 100 μM. Samples are mixed and the kinase reaction is incubated 1 hour at room temperature, after which 5 μl of development solution is added and mixed. After incubation for another 1 hour at room temperature, 5 μl of stop reagent is added to each sample and mixed. The fluorescence signals are measured to determine the emission ratio.

[3] = molecular target: Gsk3β (Homo sapiens, UniProt P49841); test: AlphaScreen kinase assay, Gsk3β; details: read-out: IC50, activity toward kinase Gsk3β
Chain of Gsk3β (P49841 whole entry): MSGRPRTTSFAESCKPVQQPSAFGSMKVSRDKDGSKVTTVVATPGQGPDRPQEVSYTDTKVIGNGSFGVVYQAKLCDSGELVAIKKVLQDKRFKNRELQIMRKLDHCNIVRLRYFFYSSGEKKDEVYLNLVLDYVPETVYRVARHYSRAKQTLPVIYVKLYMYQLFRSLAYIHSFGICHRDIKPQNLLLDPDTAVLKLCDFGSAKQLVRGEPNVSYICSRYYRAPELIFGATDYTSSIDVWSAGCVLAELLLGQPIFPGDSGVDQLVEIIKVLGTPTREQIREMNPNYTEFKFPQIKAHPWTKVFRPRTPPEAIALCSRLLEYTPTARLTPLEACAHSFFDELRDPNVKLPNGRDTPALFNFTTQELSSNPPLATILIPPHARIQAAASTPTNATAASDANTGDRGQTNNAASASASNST
In short: as §1

Measured: IC50

Chain of PDGFRA (P16234 24-1089): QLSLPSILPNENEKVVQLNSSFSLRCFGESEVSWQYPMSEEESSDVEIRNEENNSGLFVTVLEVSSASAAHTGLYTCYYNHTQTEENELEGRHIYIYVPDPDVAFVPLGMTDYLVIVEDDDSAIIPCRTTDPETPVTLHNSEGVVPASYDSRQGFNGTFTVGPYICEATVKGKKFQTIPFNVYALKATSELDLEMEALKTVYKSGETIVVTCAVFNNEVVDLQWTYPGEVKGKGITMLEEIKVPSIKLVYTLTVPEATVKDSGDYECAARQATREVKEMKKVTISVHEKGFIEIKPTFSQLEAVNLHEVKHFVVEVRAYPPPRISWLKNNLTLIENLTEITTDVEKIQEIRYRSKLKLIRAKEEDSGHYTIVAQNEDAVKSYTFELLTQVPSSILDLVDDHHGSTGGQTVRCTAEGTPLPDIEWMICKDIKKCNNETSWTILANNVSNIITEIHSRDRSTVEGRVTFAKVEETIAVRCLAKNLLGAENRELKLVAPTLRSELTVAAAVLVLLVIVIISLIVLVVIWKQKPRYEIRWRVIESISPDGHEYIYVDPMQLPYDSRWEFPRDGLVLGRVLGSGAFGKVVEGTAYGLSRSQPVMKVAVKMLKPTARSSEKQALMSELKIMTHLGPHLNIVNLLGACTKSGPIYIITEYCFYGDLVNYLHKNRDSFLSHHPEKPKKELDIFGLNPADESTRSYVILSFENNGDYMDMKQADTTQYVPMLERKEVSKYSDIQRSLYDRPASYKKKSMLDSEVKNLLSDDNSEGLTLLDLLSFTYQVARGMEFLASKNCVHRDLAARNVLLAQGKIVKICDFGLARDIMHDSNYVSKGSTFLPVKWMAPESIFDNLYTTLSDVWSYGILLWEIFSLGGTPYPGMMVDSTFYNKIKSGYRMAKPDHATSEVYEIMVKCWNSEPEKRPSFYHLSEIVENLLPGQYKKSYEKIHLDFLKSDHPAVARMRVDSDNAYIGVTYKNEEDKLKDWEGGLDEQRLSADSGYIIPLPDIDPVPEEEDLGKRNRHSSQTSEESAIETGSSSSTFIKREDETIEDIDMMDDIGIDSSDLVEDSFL

COc1cccc(C(=O)c2c[nH]c3ncc(-c4cccc(NC(C)=O)c4)cc23)c1F [Compound P-1336, N-{3-[3-(2-Fluoro-3-methoxy-benzoyl)-1H-pyrrolo[2,3-b]pyridin-5-yl]-phenyl}-acetamide]
≤ 10 µM: all assays above
